# Target: Histone deacetylase 2 (Homo sapiens, UniProt Q92769)
# Assay: Inhibition of recombinant human HDAC2 after 60 mins by fluorescence assay
# Conditions: not given
# Chain of Histone deacetylase 2 (Q92769 whole entry): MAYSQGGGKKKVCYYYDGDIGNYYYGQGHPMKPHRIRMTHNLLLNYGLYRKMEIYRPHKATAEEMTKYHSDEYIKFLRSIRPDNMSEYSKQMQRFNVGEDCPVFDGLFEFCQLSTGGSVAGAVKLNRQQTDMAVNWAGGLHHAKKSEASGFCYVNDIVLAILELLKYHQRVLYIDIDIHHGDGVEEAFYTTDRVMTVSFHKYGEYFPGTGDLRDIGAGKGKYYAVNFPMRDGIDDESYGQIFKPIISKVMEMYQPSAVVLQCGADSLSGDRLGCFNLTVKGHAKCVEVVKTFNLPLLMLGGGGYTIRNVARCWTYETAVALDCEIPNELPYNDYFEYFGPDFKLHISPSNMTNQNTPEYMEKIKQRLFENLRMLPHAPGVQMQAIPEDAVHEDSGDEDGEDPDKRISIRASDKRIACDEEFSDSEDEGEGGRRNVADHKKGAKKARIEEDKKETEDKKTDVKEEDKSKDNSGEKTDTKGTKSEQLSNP
row,IC50 [nM],SMILES
1,2710,C/C=C1\NC(=O)c2csc(n2)CNC(=O)C[C@@H](/C=C/CCSC(=O)CCCCCCC)OC(=O)[C@H](C(C)C)NC1=O
2,45,C/C=C1\NC(=O)c2csc(n2)CNC(=O)C[C@@H](/C=C/CCS)OC(=O)[C@H](C(C)C)NC1=O

# Second part, the compound before the results:
row,SMILES,IC50 [nM]
1,C/C=C1\NC(=O)c2csc(n2)[C@@H](C(C)C)NC(=O)C[C@@H](/C=C/CCS)OC(=O)[C@H](C(C)C)NC1=O,36.6
2,C/C=C1\NC(=O)c2csc(n2)CNC(=O)C[C@@H](/C=C/CCSC(C)=O)OC(=O)[C@H](C(C)C)NC1=O,328
3,C/C=C1\NC(=O)c2csc(n2)[C@@H](C(C)C)NC(=O)C[C@@H](/C=C/CCSC(=O)CCCCCCC)OC(=O)[C@H](C(C)C)NC1=O,2740

# Target: T1, Polyamine deacetylase HDAC10 (Homo sapiens, UniProt Q969S8)
# T1 sequence (Q969S8 whole entry): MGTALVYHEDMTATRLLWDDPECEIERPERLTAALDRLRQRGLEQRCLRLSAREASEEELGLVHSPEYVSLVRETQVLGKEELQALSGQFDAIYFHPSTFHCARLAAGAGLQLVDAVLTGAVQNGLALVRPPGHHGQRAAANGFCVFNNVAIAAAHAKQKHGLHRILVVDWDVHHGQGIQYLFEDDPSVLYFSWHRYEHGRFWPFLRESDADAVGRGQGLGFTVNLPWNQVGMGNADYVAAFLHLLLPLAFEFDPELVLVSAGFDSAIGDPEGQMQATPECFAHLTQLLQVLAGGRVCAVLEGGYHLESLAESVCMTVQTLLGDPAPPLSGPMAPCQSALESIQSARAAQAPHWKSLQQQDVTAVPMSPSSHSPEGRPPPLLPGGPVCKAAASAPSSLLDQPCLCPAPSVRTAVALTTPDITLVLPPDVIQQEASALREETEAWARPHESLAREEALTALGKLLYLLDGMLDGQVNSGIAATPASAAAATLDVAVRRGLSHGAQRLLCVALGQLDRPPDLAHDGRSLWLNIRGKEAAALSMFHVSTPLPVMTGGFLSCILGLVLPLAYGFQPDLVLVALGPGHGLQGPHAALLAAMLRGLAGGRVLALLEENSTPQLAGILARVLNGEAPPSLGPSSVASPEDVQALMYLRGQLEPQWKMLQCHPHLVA
# Assay: Inhibition of recombinant human HDAC10 after 60 mins by fluorescence assay
# Conditions: not given
row,IC50 [nM],SMILES
1,1930,C/C=C1\NC(=O)c2csc(n2)CNC(=O)C[C@@H](/C=C/CCSC(=O)CCCCCCC)OC(=O)[C@H](C(C)C)NC1=O
2,37.4,C/C=C1\NC(=O)c2csc(n2)CNC(=O)C[C@@H](/C=C/CCS)OC(=O)[C@H](C(C)C)NC1=O

# Continued, compound first:
row,SMILES,IC50 [nM]
1,C/C=C1\NC(=O)c2csc(n2)[C@@H](C(C)C)NC(=O)C[C@@H](/C=C/CCS)OC(=O)[C@H](C(C)C)NC1=O,138
2,C/C=C1\NC(=O)c2csc(n2)CNC(=O)C[C@@H](/C=C/CCSC(C)=O)OC(=O)[C@H](C(C)C)NC1=O,751
3,C/C=C1\NC(=O)c2csc(n2)[C@@H](C(C)C)NC(=O)C[C@@H](/C=C/CCSC(=O)CCCCCCC)OC(=O)[C@H](C(C)C)NC1=O,395

# Target: T2, Histone deacetylase 7 (Homo sapiens, UniProt Q8WUI4)
# T2 sequence (Q8WUI4 whole entry): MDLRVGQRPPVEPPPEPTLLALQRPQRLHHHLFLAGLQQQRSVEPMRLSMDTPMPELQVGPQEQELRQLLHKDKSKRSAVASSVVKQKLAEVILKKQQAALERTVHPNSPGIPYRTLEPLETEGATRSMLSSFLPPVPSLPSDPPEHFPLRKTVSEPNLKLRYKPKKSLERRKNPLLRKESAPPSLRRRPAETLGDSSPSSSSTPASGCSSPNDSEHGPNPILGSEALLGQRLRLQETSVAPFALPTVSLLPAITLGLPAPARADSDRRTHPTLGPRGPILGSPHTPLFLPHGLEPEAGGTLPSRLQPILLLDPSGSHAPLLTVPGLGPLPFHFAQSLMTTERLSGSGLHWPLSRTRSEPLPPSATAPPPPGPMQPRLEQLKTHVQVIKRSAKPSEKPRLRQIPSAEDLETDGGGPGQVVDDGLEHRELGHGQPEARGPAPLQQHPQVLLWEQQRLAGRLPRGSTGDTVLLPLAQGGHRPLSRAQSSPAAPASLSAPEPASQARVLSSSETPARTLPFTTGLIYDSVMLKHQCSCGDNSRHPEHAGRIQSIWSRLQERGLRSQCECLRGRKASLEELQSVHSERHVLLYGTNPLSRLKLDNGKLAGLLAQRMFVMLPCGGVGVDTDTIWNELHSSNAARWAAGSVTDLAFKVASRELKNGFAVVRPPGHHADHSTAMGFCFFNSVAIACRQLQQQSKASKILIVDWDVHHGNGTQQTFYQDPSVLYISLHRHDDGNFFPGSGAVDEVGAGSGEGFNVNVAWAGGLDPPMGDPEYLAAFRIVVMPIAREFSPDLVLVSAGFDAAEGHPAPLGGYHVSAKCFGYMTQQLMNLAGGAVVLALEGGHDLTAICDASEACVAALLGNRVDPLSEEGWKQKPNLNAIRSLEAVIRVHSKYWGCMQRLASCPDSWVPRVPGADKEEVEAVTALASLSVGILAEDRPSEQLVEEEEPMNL
# Assay: Inhibition of recombinant human HDAC7 after 60 mins by fluorescence assay
# Conditions: not given
row,IC50 [nM],SMILES
1,> 10000,C/C=C1\NC(=O)c2csc(n2)CNC(=O)C[C@@H](/C=C/CCSC(=O)CCCCCCC)OC(=O)[C@H](C(C)C)NC1=O
2,> 10000,C/C=C1\NC(=O)c2csc(n2)CNC(=O)C[C@@H](/C=C/CCS)OC(=O)[C@H](C(C)C)NC1=O

# Continued, compound first:
row,SMILES,IC50 [nM]
1,C/C=C1\NC(=O)c2csc(n2)[C@@H](C(C)C)NC(=O)C[C@@H](/C=C/CCS)OC(=O)[C@H](C(C)C)NC1=O,> 10000
2,C/C=C1\NC(=O)c2csc(n2)CNC(=O)C[C@@H](/C=C/CCSC(C)=O)OC(=O)[C@H](C(C)C)NC1=O,> 10000
3,C/C=C1\NC(=O)c2csc(n2)[C@@H](C(C)C)NC(=O)C[C@@H](/C=C/CCSC(=O)CCCCCCC)OC(=O)[C@H](C(C)C)NC1=O,> 10000

# System: not listed separately
# Assay: in vitro
# Conditions: human, DU145 cells and HLF cells
# Description: Selectivity ratio of GI50 for human DU145 cells to GI50 for human HLF cells
row,SMILES,selectivity ratio
1,C/C=C1\NC(=O)c2csc(n2)CNC(=O)C[C@@H](/C=C/CCSC(=O)CCCCCCC)OC(=O)[C@H](C(C)C)NC1=O,0.022
2,C/C=C1\NC(=O)c2csc(n2)CNC(=O)C[C@@H](/C=C/CCSC(C)=O)OC(=O)[C@H](C(C)C)NC1=O,0.034
3,C/C=C1\NC(=O)c2csc(n2)[C@@H](C(C)C)NC(=O)C[C@@H](/C=C/CCSC(=O)CCCCCCC)OC(=O)[C@H](C(C)C)NC1=O,0.029

# Target: Histone deacetylase 3 (Homo sapiens, UniProt O15379)
# Sequence (O15379 whole entry): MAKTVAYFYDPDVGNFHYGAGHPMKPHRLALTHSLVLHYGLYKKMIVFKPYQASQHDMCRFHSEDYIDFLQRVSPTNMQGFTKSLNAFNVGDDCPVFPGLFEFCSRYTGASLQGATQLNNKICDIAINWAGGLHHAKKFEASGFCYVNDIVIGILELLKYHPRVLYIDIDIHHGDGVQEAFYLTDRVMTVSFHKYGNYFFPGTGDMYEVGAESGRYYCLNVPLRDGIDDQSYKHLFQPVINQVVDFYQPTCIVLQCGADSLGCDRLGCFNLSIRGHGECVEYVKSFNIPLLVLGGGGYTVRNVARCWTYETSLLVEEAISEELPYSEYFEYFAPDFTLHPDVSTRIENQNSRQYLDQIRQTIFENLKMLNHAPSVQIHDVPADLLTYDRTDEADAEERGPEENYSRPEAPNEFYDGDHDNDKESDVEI
# Assay: Inhibition of recombinant human HDAC3 after 60 mins by fluorescence assay
# Conditions: not given
row,IC50 [nM],SMILES
1,1680,C/C=C1\NC(=O)c2csc(n2)CNC(=O)C[C@@H](/C=C/CCSC(=O)CCCCCCC)OC(=O)[C@H](C(C)C)NC1=O
2,7.67,C/C=C1\NC(=O)c2csc(n2)CNC(=O)C[C@@H](/C=C/CCS)OC(=O)[C@H](C(C)C)NC1=O

# The next lines start with the compound.
row,SMILES,IC50 [nM]
1,C/C=C1\NC(=O)c2csc(n2)[C@@H](C(C)C)NC(=O)C[C@@H](/C=C/CCS)OC(=O)[C@H](C(C)C)NC1=O,9.77
2,C/C=C1\NC(=O)c2csc(n2)CNC(=O)C[C@@H](/C=C/CCSC(C)=O)OC(=O)[C@H](C(C)C)NC1=O,73
3,C/C=C1\NC(=O)c2csc(n2)[C@@H](C(C)C)NC(=O)C[C@@H](/C=C/CCSC(=O)CCCCCCC)OC(=O)[C@H](C(C)C)NC1=O,3150

# Target: T3, Protein deacetylase HDAC6 (Homo sapiens, UniProt Q9UBN7)
# T3 sequence (Q9UBN7 whole entry): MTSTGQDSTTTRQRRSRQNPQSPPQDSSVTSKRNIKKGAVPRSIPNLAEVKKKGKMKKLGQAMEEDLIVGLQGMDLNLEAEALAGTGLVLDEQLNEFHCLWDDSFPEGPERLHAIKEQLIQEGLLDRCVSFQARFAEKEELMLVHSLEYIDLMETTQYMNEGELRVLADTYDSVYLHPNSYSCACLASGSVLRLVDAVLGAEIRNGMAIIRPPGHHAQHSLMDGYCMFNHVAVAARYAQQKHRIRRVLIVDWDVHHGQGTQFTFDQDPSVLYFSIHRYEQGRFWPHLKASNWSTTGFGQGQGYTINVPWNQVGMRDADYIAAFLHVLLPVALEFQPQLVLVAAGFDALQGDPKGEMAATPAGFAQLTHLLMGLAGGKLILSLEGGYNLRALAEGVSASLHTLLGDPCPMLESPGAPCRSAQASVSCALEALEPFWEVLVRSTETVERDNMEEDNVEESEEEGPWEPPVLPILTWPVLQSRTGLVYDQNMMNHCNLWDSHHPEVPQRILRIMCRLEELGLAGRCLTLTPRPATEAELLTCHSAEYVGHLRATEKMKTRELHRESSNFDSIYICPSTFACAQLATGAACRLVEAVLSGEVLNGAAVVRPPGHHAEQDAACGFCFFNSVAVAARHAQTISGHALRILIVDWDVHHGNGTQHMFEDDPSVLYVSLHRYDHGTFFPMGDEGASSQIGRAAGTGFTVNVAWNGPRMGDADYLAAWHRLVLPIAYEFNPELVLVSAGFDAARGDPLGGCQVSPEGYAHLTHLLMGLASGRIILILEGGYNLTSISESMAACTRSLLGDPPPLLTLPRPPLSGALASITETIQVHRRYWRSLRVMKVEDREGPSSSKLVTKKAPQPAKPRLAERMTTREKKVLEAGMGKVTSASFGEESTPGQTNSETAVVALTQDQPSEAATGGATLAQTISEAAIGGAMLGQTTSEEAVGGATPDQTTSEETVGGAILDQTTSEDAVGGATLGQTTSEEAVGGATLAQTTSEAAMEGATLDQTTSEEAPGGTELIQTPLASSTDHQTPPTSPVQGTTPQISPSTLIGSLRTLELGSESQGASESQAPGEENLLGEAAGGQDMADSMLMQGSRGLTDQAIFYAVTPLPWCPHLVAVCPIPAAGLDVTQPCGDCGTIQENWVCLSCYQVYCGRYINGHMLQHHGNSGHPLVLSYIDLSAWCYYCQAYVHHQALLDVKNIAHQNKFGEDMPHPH
# Assay: Inhibition of recombinant human HDAC6 after 60 mins by fluorescence assay
# Conditions: not given
row,IC50 [nM],SMILES
1,6950,C/C=C1\NC(=O)c2csc(n2)CNC(=O)C[C@@H](/C=C/CCSC(=O)CCCCCCC)OC(=O)[C@H](C(C)C)NC1=O
2,331,C/C=C1\NC(=O)c2csc(n2)CNC(=O)C[C@@H](/C=C/CCS)OC(=O)[C@H](C(C)C)NC1=O

# More lines, now with the values behind:
row,SMILES,IC50 [nM]
1,C/C=C1\NC(=O)c2csc(n2)[C@@H](C(C)C)NC(=O)C[C@@H](/C=C/CCS)OC(=O)[C@H](C(C)C)NC1=O,459
2,C/C=C1\NC(=O)c2csc(n2)CNC(=O)C[C@@H](/C=C/CCSC(C)=O)OC(=O)[C@H](C(C)C)NC1=O,4630
3,C/C=C1\NC(=O)c2csc(n2)[C@@H](C(C)C)NC(=O)C[C@@H](/C=C/CCSC(=O)CCCCCCC)OC(=O)[C@H](C(C)C)NC1=O,> 10000

# System: DU-145
# Assay: Antiproliferative activity against human DU145 cells after 72 hrs by CCK8 assay
# Assay type: functional
# Conditions: Homo sapiens, DU-145, 72 h
row,SMILES,GI50 [nM]
1,C/C=C1\NC(=O)c2csc(n2)CNC(=O)C[C@@H](/C=C/CCSC(=O)CCCCCCC)OC(=O)[C@H](C(C)C)NC1=O,6.99
2,C/C=C1\NC(=O)c2csc(n2)CNC(=O)C[C@@H](/C=C/CCSC(C)=O)OC(=O)[C@H](C(C)C)NC1=O,11
3,C/C=C1\NC(=O)c2csc(n2)[C@@H](C(C)C)NC(=O)C[C@@H](/C=C/CCSC(=O)CCCCCCC)OC(=O)[C@H](C(C)C)NC1=O,20.5

# — ChEMBL document CHEMBL3621100, “Discovery of Novel Class I Histone Deacetylase Inhibitors with Promising in Vitro and in Vivo Antitumor Activities” (J Med Chem, 2015)
